Drawing on patent US8283361B2 (AstraZeneca AB, priority 2008, dated 2012), this text covers inhibition and MIC for 16 molecules.

Converted amounts (≈) assume the structure as drawn.

One assay addresses S. aureus GyrB ATPase (Staphylococcus aureus, UniProt P0A0K8). Briefly: biochemical. The conditions noted are these: compound at 1 μM; one value per test if tested more than once; read-out: % Inhibition of S. aureus GyrB ATPase. In short, it runs like this:
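IC50 values derive from 10-point titrations of compound (in DMSO). Phosphate formed from 250 μM ATP was quantified by acidic molybdate/malachite green after quenching.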

The subject of the next assay is Streptococcus pneumoniae. Briefly: Bacterial susceptibility testing in liquid media (MIC). It is filed as cell-based. The conditions noted are these: against Streptococcus pneumoniae; lowest concentration reducing growth by 80% or more. From the text:
Compounds may be tested for antimicrobial activity by susceptibility testing in liquid media. Compounds may be dissolved in dimethylsulfoxide and tested in 10 doubling dilutions in the susceptibility assays. The organisms used in the assay may be grown overnight on suitable agar media and then suspended in a liquid medium appropriate for the growth of the organism. The suspension can be a 0.5 McFarland and a further 1 in 10 dilution can be made into the same liquid medium to prepare the final organism suspension in 100 μL. Plates can be incubated under appropriate conditions at 37° C. for 24 hrs prior to reading. The Minimum Inhibitory Concentration (MIC) may be determined as the lowest drug concentration able to reduce growth by 80% or more.

Sequence of S. aureus GyrB ATPase (P0A0K8 whole entry): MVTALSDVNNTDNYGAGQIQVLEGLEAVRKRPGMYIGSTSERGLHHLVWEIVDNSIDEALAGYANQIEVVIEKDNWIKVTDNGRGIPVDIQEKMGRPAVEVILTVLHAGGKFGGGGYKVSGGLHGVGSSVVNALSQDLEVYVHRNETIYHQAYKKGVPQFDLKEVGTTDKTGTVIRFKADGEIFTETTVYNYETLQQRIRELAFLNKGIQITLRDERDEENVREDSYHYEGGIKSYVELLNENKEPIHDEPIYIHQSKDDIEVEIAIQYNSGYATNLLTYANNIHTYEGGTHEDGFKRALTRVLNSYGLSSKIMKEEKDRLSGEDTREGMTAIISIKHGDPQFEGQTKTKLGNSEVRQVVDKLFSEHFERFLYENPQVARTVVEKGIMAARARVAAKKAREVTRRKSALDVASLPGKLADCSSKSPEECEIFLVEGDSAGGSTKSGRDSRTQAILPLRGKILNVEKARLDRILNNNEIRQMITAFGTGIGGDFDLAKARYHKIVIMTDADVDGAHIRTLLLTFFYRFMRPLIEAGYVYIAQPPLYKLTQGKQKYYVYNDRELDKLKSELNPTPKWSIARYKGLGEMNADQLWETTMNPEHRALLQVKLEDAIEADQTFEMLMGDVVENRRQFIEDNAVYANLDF
Sequence of S. aureus GyrB ATPase (P0AES4 whole entry, further chain): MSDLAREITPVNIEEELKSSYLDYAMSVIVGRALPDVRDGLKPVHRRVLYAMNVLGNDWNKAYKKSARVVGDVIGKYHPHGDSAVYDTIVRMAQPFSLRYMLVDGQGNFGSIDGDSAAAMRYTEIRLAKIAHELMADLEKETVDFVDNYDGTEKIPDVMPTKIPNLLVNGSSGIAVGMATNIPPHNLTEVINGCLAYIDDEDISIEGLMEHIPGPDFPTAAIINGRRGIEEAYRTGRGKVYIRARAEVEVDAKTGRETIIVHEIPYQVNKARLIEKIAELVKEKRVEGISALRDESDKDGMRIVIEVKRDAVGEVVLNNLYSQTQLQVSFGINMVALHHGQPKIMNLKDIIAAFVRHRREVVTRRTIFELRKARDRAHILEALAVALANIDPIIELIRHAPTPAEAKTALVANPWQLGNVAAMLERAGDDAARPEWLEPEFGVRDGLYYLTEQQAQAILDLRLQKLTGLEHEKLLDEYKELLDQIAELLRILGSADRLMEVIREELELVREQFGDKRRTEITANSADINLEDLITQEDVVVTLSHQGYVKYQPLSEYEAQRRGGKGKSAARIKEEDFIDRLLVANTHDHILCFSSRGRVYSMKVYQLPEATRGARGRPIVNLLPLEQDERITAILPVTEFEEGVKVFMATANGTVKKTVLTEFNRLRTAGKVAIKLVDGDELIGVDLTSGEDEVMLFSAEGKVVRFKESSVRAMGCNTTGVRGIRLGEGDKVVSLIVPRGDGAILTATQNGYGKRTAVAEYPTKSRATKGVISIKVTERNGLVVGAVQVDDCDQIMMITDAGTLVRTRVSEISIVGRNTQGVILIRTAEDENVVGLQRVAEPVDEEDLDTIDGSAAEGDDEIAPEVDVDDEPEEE

Turning to `CCNC(=O)Nc1cc(-c2nc(C(F)(F)F)cs2)c(-c2ccc3c(=O)c(C(=O)O)cn(CC)c3c2)cn1` [Example 9, 1-ethyl-7-(6-(3-ethylureido)-4-(4-trifluoromethylthiazol-2-yl)pyridin-3-yl)-4-oxo-1,4-dihydroquinoline-3-carboxylic acid], the inhibition at 1 µM at S. aureus GyrB ATPase was determined as 106%. Also, the MIC against Streptococcus pneumoniae amounted to 0.02 µM (≈ 0.0106 µg/mL).

As for `CCNC(=O)Nc1cc(-c2nc(C(F)(F)F)cs2)c(-c2ccc3c(=O)c(C(=O)NCCCO)cn(CCO)c3c2)cn1` [Example 365, 7-{6-[(ethylcarbamoyl)amino]-4-[4-(trifluoromethyl)-1,3-thiazol-2-yl]pyridin-3-yl}-1-(2-hydroxyethyl)-N-(3-hydroxypropyl)-4-oxo-1,4-dihydroquinoline-3-carboxamide], the inhibition at 1 µM on S. aureus GyrB ATPase is 99%.

Turning to `CCNC(=O)Nc1cc(-c2nc(C(F)(F)F)cs2)c(-c2ccc3c(=O)c(C(=O)NCCN(C)C)cn(CCO)c3c2)cn1` [Example 366, N-[2-(dimethylamino)ethyl]-7-{6-[(ethylcarbamoyl)amino]-4-[4-(trifluoromethyl)-1,3-thiazol-2-yl]pyridin-3-yl}-1-(2-hydroxyethyl)-4-oxo-1,4-dihydroquinoline-3-carboxamide], at S. aureus GyrB ATPase, the inhibition at 1 µM is 99%.

`CCNC(=O)Nc1cc(-c2nc(C(F)(F)F)cs2)c(-c2ccc3c(=O)c(C(=O)NCCN4CCOCC4)cn(CCO)c3c2)cn1` [Example 367, 7-{6-[(ethylcarbamoyl)amino]-4-[4-(trifluoromethyl)-1,3-thiazol-2-yl]pyridin-3-yl}-1-(2-hydroxyethyl)-N-[2-(morpholin-4-yl)ethyl]-4-oxo-1,4-dihydroquinoline-3-carboxamide]: on S. aureus GyrB ATPase, the inhibition at 1 µM is 100%.

As for `CCNC(=O)Nc1cc(-c2nc(C(F)(F)F)cs2)c(-c2ccc3c(=O)c(C(=O)NCCN4CCN(C)CC4)cn(CCO)c3c2)cn1` [Example 368, 7-{6-[(Ethylcarbamoyl)amino]-4-[4-(trifluoromethyl)-1,3-thiazol-2-yl]pyridin-3-yl}-1-(2-hydroxyethyl)-N-[2-(4-methylpiperazin-1-yl)ethyl]-4-oxo-1,4-dihydroquinoline-3-carboxamide], the inhibition at 1 µM at S. aureus GyrB ATPase was determined as 87%.

Consider `CCNC(=O)Nc1cc(-c2nc(C(F)(F)F)cs2)c(-c2ccc3c(=O)c(C(=O)NC)cn(CCOC)c3c2)cn1` [Example 369, 7-{6-[(Ethylcarbamoyl)amino]-4-[4-(trifluoromethyl)-1,3-thiazol-2-yl]pyridin-3-yl}-1-(2-methoxyethyl)-N-methyl-4-oxo-1,4-dihydroquinoline-3-carboxamide], for which the inhibition at 1 µM at S. aureus GyrB ATPase worked out at 97%.

Turning to `CCNC(=O)Nc1cc(-c2nc(C(F)(F)F)cs2)c(-c2ccc3c(=O)c(C(=O)NCCO)cn(CCOC)c3c2)cn1` [Example 370, 7-{6-[(Ethylcarbamoyl)amino]-4-[4-(trifluoromethyl)-1,3-thiazol-2-yl]pyridin-3-yl}-N-(2-hydroxyethyl)-1-(2-methoxyethyl)-4-oxo-1,4-dihydroquinoline-3-carboxamide], the inhibition at 1 µM on S. aureus GyrB ATPase was 98%.

On to `CCNC(=O)Nc1cc(-c2nc(C(F)(F)F)cs2)c(-c2ccc3c(=O)c(C(=O)NCCCO)cn(CCOC)c3c2)cn1` [Example 371, 7-{6-[(Ethylcarbamoyl)amino]-4-[4-(trifluoromethyl)-1,3-thiazol-2-yl]pyridin-3-yl}-N-(3-hydroxypropyl)-1-(2-methoxyethyl)-4-oxo-1,4-dihydroquinoline-3-carboxamide], for which, on S. aureus GyrB ATPase, the inhibition at 1 µM amounted to 98%.

Take `CCNC(=O)Nc1cc(-c2nc(C(F)(F)F)cs2)c(-c2ccc3c(=O)c(C(=O)NCCN(C)C)cn(CCOC)c3c2)cn1` [Example 372, N-[2-(dimethylamino)ethyl]-7-{6-[(ethylcarbamoyl)amino]-4-[4-(trifluoromethyl)-1,3-thiazol-2-yl]pyridin-3-yl}-1-(2-methoxyethyl)-4-oxo-1,4-dihydroquinoline-3-carboxamide]: the inhibition at 1 µM at S. aureus GyrB ATPase is 98%.

Consider `CCNC(=O)Nc1cc(-c2nc(C(F)(F)F)cs2)c(-c2ccc3c(=O)c(C(=O)NCCN4CCN(C)CC4)cn(CCOC)c3c2)cn1` [Example 373, 7-{6-[(Ethylcarbamoyl)amino]-4-[4-(trifluoromethyl)-1,3-thiazol-2-yl]pyridin-3-yl}-1-(2-methoxyethyl)-N-[2-(4-methylpiperazin-1-yl)ethyl]-4-oxo-1,4-dihydroquinoline-3-carboxamide], for which, at S. aureus GyrB ATPase, the inhibition at 1 µM came to 94%.

On to `CCNC(=O)Nc1cc(-c2nc(C(F)(F)F)cs2)c(-c2ccc3c(=O)c(C(=O)NC)cn(CC4CC4)c3c2)cn1` [Example 374, 1-(Cyclopropylmethyl)-7-{6-[(ethylcarbamoyl)amino]-4-[4-(trifluoromethyl)-1,3-thiazol-2-yl]pyridin-3-yl}-N-methyl-4-oxo-1,4-dihydroquinoline-3-carboxamide], for which the inhibition at 1 µM on S. aureus GyrB ATPase was found to be 86%.

For `CCNC(=O)Nc1cc(-c2nc(C(F)(F)F)cs2)c(-c2ccc3c(=O)c(C(=O)NCCO)cn(CC4CC4)c3c2)cn1` [Example 375, 1-(Cyclopropylmethyl)-7-{6-[(ethylcarbamoyl)amino]-4-[4-(trifluoromethyl)-1,3-thiazol-2-yl]pyridin-3-yl}-N-(2-hydroxyethyl)-4-oxo-1,4-dihydroquinoline-3-carboxamide], the inhibition at 1 µM at S. aureus GyrB ATPase turned out to be 99%.

On to `CCNC(=O)Nc1cc(-c2nc(C(F)(F)F)cs2)c(-c2ccc3c(=O)c(C(=O)NCCCO)cn(CC4CC4)c3c2)cn1` [Example 376, 1-(Cyclopropylmethyl)-7-{6-[(ethylcarbamoyl)amino]-4-[4-(trifluoromethyl)-1,3-thiazol-2-yl]pyridin-3-yl}-N-(3-hydroxypropyl)-4-oxo-1,4-dihydroquinoline-3-carboxamide], for which, on S. aureus GyrB ATPase, the inhibition at 1 µM was determined as 108%.

For the molecule `CCNC(=O)Nc1cc(-c2nc(C(F)(F)F)cs2)c(-c2ccc3c(=O)c(C(=O)NCCN(C)C)cn(CC4CC4)c3c2)cn1` [Example 377, 1-(Cyclopropylmethyl)-N-[2-(dimethylamino)ethyl]-7-{6-[(ethylcarbamoyl)amino]-4-[4-(trifluoromethyl)-1,3-thiazol-2-yl]pyridin-3-yl}-4-oxo-1,4-dihydroquinoline-3-carboxamide], on S. aureus GyrB ATPase, the inhibition at 1 µM was 106%.

With `CCNC(=O)Nc1cc(-c2nc(C(F)(F)F)cs2)c(-c2ccc3c(=O)c(C(=O)NCCN4CCOCC4)cn(CC4CC4)c3c2)cn1` [Example 378, 1-(Cyclopropylmethyl)-7-{6-[(ethylcarbamoyl)amino]-4-[4-(trifluoromethyl)-1,3-thiazol-2-yl]pyridin-3-yl}-N-[2-(morpholin-4-yl)ethyl]-4-oxo-1,4-dihydroquinoline-3-carboxamide], the inhibition at 1 µM on S. aureus GyrB ATPase was determined as 107%.

`CCNC(=O)Nc1cc(-c2nc(C(F)(F)F)cs2)c(-c2ccc3c(=O)c(C(=O)NCCN4CCN(C)CC4)cn(CC4CC4)c3c2)cn1` [Example 379, 1-(Cyclopropylmethyl)-7-{6-[(ethylcarbamoyl)amino]-4-[4-(trifluoromethyl)-1,3-thiazol-2-yl]pyridin-3-yl}-N-[2-(4-methylpiperazin-1-yl)ethyl]-4-oxo-1,4-dihydroquinoline-3-carboxamide]: on S. aureus GyrB ATPase, the inhibition at 1 µM turned out to be 97%.

Usually inhibition stands for the drop in the measured response relative to a control, in per cent. The term MIC denotes the lowest concentration that inhibits growth of the organism. A higher MIC goes with a need for much substance.
